Test results taken from patent US8178568B2, “Sulfone compounds which modulate the CB2 receptor” (Boehringer Ingelheim International GmbH, priority 2008, dated 2012).

These molecules were tested against T1, human CB2R (Homo sapiens, UniProt P34972) (assay: CB2R mediated modulation of cAMP synthesis). Conditions: not given.
T1 construct: host or cells: CHO cells
T1 sequence (P34972 whole entry): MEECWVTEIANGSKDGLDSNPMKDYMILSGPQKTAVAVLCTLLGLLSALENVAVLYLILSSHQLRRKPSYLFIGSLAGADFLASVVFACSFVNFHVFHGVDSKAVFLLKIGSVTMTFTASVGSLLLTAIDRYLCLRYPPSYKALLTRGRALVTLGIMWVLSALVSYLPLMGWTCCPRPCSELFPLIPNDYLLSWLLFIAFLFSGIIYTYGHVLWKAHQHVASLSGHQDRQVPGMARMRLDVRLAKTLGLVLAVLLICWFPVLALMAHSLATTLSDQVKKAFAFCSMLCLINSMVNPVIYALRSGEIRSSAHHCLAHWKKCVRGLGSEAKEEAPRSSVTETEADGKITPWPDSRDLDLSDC
Format: cell-based
Protocol: B. CB2R Mediated Modulation of cAMP Synthesis:
Compounds of the invention were evaluated for their CB2 agonist or inverse agonistic activity in accordance with the following experimental method.
CHO cells expressing human CB2R (Euroscreen) were plated at a density of 5000 cells per well in 384 well plates and incubated overnight at 37° C. After removing the media, the cells were treated with test compounds diluted in stimulation buffer containing 1 mM IBMX, 0.25% BSA and 10 uM Forskolin. The assay was incubated for 30 minutes at 37° C. Cells were lysed and the cAMP concentration was measured using DiscoverX-XS cAMP kit, following the manufacturer's protocol. In this setting, agonists will decrease forskolin induced production of cAMP while inverse agonists will further increase forskolin induced production of cAMP. EC50 of agonists were calculated as follows. The maximal amount of cAMP produced by forskolin compared to the level of cAMP inhibited by 1 uM CP55940 is defined as 100%. The EC50 value of each test compound was determined as the concentration at which 50% of the forskolin-stimulated cAMP synthesis was inhibited. Data was analyzed using a four-parameter logistic model. (Model 205 of XLfit 4.0).
Work on CC(C)(C)c1cc(N2CCC(C)(S(=O)(=O)c3ccc(Cl)cc3)C2=O)no1 (stereo not drawn) yielded an EC50 of 14 nM.
Molecule CC(C)(C)c1cc(N2CCC(C)(S(=O)(=O)c3ccc(Cl)cc3)C2=O)on1 (stereo not drawn) has an EC50 of 25 nM.
CC(C)(C)c1cc(NC(=O)C(C)(CCO)S(=O)(=O)c2ccc(Cl)cc2)on1 (stereo not drawn) showed an EC50 of 17 nM.
With CC(C)(C)c1cc(N2CC[C@@](C)(S(=O)(=O)c3ccc(Cl)cc3)C2=O)on1 the EC50 was 37 nM.
CC(C)(C)c1cc(NC(=O)C(C)(CCO)S(=O)(=O)C2CCOCC2)on1 (stereo not drawn) was tested, and the EC50 was 21 nM.
CC(C)(C)c1cc(N2CC[C@](C)(S(=O)(=O)c3ccc(Cl)cc3)C2=O)on1 gave an EC50 of 25 nM.

Same assay, conditions: Table III, formula I compounds; CHO cells expressing human CB2R, inhibition of forskolin-stimulated cAMP synthesis; read-out: CB2 EC50
For CC(C)(C)c1cc(N2CCC(C)(S(=O)(=O)C3CCOCC3)C2=O)on1 (stereo not drawn), the EC50 was 220 nM.
For CC1(S(=O)(=O)c2ccc(Cl)cc2)CCN(c2nnc(-c3ccccc3)[nH]2)C1=O (stereo not drawn), the EC50 was 20 nM.

Same assay, conditions: Table VI, formula IB compounds; CHO cells expressing human CB2R, inhibition of forskolin-stimulated cAMP synthesis; read-out: CB2 EC50
O=C(Nc1nc(-c2ccccc2)ns1)C(CCO)S(=O)(=O)c1ccc(Cl)cc1 (stereo not drawn) was tested, and the EC50 was 544 nM.
